Data set [1] has as its target T1, human soluble ENPP1 (Homo sapiens, UniProt P22413).
T1 construct: 20 ng of human soluble ENPP1
T1 sequence (P22413 103-925 limits assumed): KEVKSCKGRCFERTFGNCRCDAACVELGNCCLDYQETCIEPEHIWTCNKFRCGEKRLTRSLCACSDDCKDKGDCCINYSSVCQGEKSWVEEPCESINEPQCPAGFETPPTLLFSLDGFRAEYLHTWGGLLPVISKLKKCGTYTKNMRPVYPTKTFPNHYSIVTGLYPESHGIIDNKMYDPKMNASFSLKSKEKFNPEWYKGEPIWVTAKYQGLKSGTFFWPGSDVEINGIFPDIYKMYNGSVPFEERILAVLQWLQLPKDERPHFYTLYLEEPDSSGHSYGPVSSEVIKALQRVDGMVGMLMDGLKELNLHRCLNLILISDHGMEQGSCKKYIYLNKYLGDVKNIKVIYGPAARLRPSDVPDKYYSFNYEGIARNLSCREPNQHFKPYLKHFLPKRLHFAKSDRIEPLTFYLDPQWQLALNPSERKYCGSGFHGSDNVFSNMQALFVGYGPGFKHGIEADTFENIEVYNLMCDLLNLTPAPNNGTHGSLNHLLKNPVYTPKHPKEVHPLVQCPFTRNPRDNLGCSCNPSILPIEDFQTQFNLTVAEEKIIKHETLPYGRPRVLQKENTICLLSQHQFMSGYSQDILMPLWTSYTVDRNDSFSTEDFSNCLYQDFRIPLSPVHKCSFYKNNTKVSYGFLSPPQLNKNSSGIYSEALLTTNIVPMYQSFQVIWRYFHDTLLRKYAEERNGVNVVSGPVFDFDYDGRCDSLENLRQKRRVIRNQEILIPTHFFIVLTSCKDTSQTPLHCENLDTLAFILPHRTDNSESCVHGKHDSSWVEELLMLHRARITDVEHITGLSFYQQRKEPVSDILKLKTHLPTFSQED
Kind of data set: ENPP1 activity assay using p-Nitrophenyl-5′-TMP as a substrate. Type of data set: biochemical. The gist of the method:
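Human soluble ENPP1 (20 ng) was preincubated with inhibitor for 30 min at room temperature. TMP-pNP was then added as a 2 mM […] solution and incubated 1 h at RT, with p-nitrophenol formation read by OD. IC50 came from four-parameter fits of % inhibition relative to no-inhibitor and blank controls.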

The target of data set [2] is T1, human soluble ENPP1. The data set is described as follows: ENPP1 activity assay using p-Nitrophenyl-5′-AMP as a substrate. Type of data set: biochemical. The gist of the method: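 Human soluble ENPP1 (35 ng) preincubated with inhibitor 30 min at RT, then p-nitrophenyl-5′-AMP added (3 mM solution, 2× final) and incubated 1 h at RT. p-Nitrophenolate release read at OD 405 nm; % inhibition vs no-inhibitor and blank controls, IC50 from four-parameter fit.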

Data set [3] can be described thus: Liver microsome stability, human. The class given is in vitro ADME. The note with it: for Hepatic extraction ratio Re: Human liver microsome; for Half-life t1/2 (min): Human liver microsome 0.5 mg/mL, NADPH and UDPGA, 37° C. On the procedure:
(§1) Liver microsome assay was used to evaluate the metabolic stability of I-VI. The test article at the concentration of […] was incubated with 0.5 mg/mL liver microsome in the presence of NADPH and UDPGA as the co-factors for 0, 15, 30, 45 and 60 minutes. The incubation was carried out at 37° C. with 5% CO2 and saturating humidity. Disappearance of the test article was monitored by LC/MS/MS. the disappearance half-life (t1/2), intrinsic clearance and hepatic extraction ratio were determined.

The next data set concerns the target T2, ENPP-1, MDA-MB-231 cells (Homo sapiens, UniProt P22413).
T2 sequence (P22413 1-925): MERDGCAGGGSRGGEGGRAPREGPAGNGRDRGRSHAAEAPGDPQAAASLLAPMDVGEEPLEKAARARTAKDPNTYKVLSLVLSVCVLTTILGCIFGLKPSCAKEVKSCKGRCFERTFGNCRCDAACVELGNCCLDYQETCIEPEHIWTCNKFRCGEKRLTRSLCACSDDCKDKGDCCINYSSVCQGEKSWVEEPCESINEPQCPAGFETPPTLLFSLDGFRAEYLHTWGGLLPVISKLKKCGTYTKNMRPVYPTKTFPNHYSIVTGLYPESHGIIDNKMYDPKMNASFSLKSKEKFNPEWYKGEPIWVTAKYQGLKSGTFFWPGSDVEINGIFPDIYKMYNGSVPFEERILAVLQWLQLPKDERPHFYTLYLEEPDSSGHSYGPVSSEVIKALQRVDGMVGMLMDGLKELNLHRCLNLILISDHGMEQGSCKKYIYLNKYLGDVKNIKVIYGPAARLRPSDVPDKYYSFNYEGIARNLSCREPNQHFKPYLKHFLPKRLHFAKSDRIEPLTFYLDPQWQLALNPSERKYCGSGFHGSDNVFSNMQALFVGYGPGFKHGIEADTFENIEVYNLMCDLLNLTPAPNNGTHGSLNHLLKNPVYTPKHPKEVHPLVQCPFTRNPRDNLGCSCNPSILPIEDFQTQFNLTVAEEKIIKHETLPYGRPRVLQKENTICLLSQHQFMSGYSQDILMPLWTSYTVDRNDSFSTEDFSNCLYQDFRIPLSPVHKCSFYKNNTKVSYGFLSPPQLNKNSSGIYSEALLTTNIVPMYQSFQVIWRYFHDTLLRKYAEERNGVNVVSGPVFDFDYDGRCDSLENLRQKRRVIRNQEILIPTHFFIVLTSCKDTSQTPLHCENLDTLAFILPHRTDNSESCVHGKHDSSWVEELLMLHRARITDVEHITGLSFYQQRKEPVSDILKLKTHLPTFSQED
Kind of data set: cell-based. To be noted: for inhibition at 20 µM: MDA-MB-231, read-out: % Inhibition (at 20 μM).

The target of a further data set is T3, ENPP-1, HEK293 cells (Homo sapiens, UniProt P22413).
T3 construct: ENPP-1 were mainly expressed on the surface of cell membrane; endogenous in cells; host or cells: HEK293
T3 sequence (P22413 1-925): T2 sequence (P22413 1-925)
The data set is described as follows: Cellular enzymatic assay of ENPP-1 inhibitors using TMP-pNP as substrate, HEK 293 cells. Type of data set: cell-based. The note with it: for inhibition at 20 µM: HEK293, read-out: Inhibition (at 20 μM). The method, then:
(§2) ENPP-1 were mainly expressed on the surface of cell membrane where it hydrolytes 2′3′-cGAMP to generate 5′-GMP and 5′-AMP. ENPP-1 also has the ability to hydrolyzes artificial phosphoric acid ester TMP-pNP to nucleotide-5′-monophosphate and p-nitrophcnol there, which is a chromogenic product.
(§3) 8 point of different concentrations of each inhibitor were prepared with the final assay concentrations starting at 20 μM. 3× series dilution by DMEM medium without FBS was applied. Prior to adding inhibitors, 75000 cells per well were incubated at 37° C., 5% CO2 in DMEM for 24 hours. After removing the supernatant medium, 50 μL inhibitor solution was added into each well with cultured cells and incubate at 37° C., 5% CO2 for 60 minutes.
(§4) The IC50 values for percent inhibition versus compound concentration are determined by fitting the inhibition curves using a four-parameter variable slope model in GraphPad Prism® 8.

The next data set addresses T4, ENPP-1, Saos-2 cells (Homo sapiens, UniProt P22413).
T4 construct: ENPP-1 were mainly expressed on the surface of cell membrane; endogenous in cells; host or cells: Saos-2
T4 sequence (P22413 1-925): T2 sequence (P22413 1-925)
The data set is described as follows: Cellular enzymatic assay of ENPP-1 inhibitors using TMP-pNP as substrate, Saos-2 cells. The class given is cell-based. To be noted: for inhibition at 20 µM: SAOS-2, read-out: % Inhibition (@20 μM). On the procedure: as §2, §3, §4

Data set [4] can be described thus: Liver microsome stability, mouse. The class given is in vitro ADME. On the procedure:
as §1

Data set [5] relates to cGAMP activated THP-1 cells. Kind of data set: ENPP1 inhibitors screening on cGAMP activated THP-1 cells (IFN-β ELISA). The note with it: THP-1 cells with 2′3′-cGAMP, 24 hours, FIGS. 1A-1E. Type of data set: cell-based. On the procedure:
THP-1 cells from bulk cultures were counted and suspended in RPMI 1640, 20% FBS, 2.5 mM L-alanyl-L-glutamine at a concentration of 5.5×10^6 cells/mL. The THP-1 cells were subsequently seeded into 96 well round bottom plates 180 μL/well (1×10^6 cells per well), incubated for 1 hour at 37° C., 5% CO2.
Test compounds were screened in triplicate on THP-1 cells at a final concentration of 10 μM. A working solutions at 0.2 mM. Each well contains 180 μL of THP-1 cell suspension, 10 μL (30 μM, 40 μM or 50 μM) 2′3′-cGAMP (InvivoGen, catalog #tlrl-nacga23) solution (600 μM, 800 μM or 1000 μM) and 10 μL test compound working solution. Incubate for 1 hour.
Vehicle control wells contain 2′3′-cGAMP at concentrations of […] and 50 μM without any test compound. Positive control, 2′3′-cGAMP or 2′,3′-cGAM(PS)2 (Rp/Sp) (InvivoGen, cat #tlrl-nacga2srs) at 40 μM and 80 μM (final concentration).
The final assay volume were 200 μL/well contains: 1) THP-1 cells=180 μL, 2) test compounds=10 μL, 3) 2′3′-cGAMP or 2′3′-cGAM(PS)2 (Rp/Sp) or vehicle control=10 μL.
After incubation for 24 hours at 37° C., 5% CO2, the supernatants were harvested at 200×g for 10 minutes. Cell culture supernatants were then transferred to a clean plate and stored at −80° C. until ready to analyze for IFN-β levels. The IFN-β levels in cell culture supernatants were determined by ELISA kits (PBL Assay Science, catalog #41410) according to the manufacturer's instructions.
The % increase measured for IFN-β in cells treated by the test compounds 12, 48, 89, 103 and 121 relative to that of untreated cells were tested (as shown in FIGS. 1A-1E).

On human soluble ENPP1 [1], `COc1cc2ncc3ncn(Cc4ccc(S(N)(=O)=O)nc4)c3c2cc1OC` [Compound 10, 5-((7,8-dimethoxy-1H-imidazo[4,5-c]quinolin-1-yl)methyl)pyridine-2-sulfonamide] yielded an IC50 of 1.1 nM. The compound further came in with an IC50 against human soluble ENPP1 [2] of 27 nM. In data set [3], the “Hepatic extraction ratio Re” value turned out to be 0 and the “Half-life t1/2 (min)” value is “∞”.
Take `COc1ccc2c(c1)ncc1[nH]c(=O)n(Cc3ccc(S(N)(=O)=O)cc3)c12` [Compound 35, 4-((7-methoxy-2-oxo-2,3-dihydro-1H-imidazo[4,5-c]quinolin-1-yl)methyl)benzenesulfonamide]: the IC50 at human soluble ENPP1 [1] is 0.37 nM; against human soluble ENPP1 [2] it was 35 nM; on ENPP-1, MDA-MB-231 cells, 1500 nM; against ENPP-1, HEK293 cells it was 3400 nM; against ENPP-1, Saos-2 cells, 5600 nM. In addition, the inhibition at 20 µM came to 73% on ENPP-1, MDA-MB-231 cells; 51% on ENPP-1, HEK293 cells; 76% at ENPP-1, Saos-2 cells. Further, the “Hepatic extraction ratio Re” value in data set [4] (Mouse liver microsome) and in data set [3] was 0 throughout. Moreover, the “Half-life t1/2 (min)” value is “∞” in data set [4] (Mouse liver microsome 0.5 mg/mL, NADPH and UDPGA, 37° C.); “∞” in data set [3].
Consider `COc1ccc2ncc3ncn(Cc4ccc(S(N)(=O)=O)cc4)c3c2c1` [Compound 36, 4-((8-methoxy-1H-imidazo[4,5-c]quinolin-1-yl)methyl)benzenesulfonamide], for which the IC50 on human soluble ENPP1 [1] turned out to be 3.1 nM; against human soluble ENPP1 [2] it was 36 nM; against ENPP-1, MDA-MB-231 cells, 1500 nM; against ENPP-1, HEK293 cells it was 5000 nM; against ENPP-1, Saos-2 cells, 2000 nM. Moreover, the inhibition at 20 µM was 66% at ENPP-1, MDA-MB-231 cells; 57% on ENPP-1, HEK293 cells; 48% on ENPP-1, Saos-2 cells. Besides, the “Hepatic extraction ratio Re” value in data set [4] (Mouse liver microsome) was 0.55. In data set [4] (liver microsomes, Mouse liver microsome 0.5 mg/mL, NADPH and UDPGA, 37° C., read-out: Half-life t1/2), the half-life is 49 min. Moreover, the microsomal CLint in data set [4] (liver microsomes, Mouse liver microsome, read-out: Intrinsic clearance Cl′int, (μL/min/mg protein)) is 28 µL/min/mg.
`COc1ccc2c(ncc3[nH]c(=O)n(Cc4c(F)cc(S(N)(=O)=O)cc4F)c32)n1` [Compound 103, 3,5-difluoro-4-((7-methoxy-2-oxo-2,3-dihydro-1H-imidazo[4,5-c][1,8]naphthyridin-1-yl)methyl)benzenesulfonamide]: the IC50 on human soluble ENPP1 [1] came out at 0.09 nM; on human soluble ENPP1 [2], 0.06 nM; against ENPP-1, MDA-MB-231 cells it was 34 nM. Besides, the inhibition at 20 µM at ENPP-1, MDA-MB-231 cells came out at 87%. Moreover, the “% increase measured for IFN-β relative to that of untreated cells” value in data set [5] was “potently increased the IFN-β levels at very low concentrations”.
On the same counts, the results for `COc1ccc2c(ncc3[nH]c(=O)n(Cc4ccc(P(=O)(O)O)c(F)c4)c32)n1` [Compound 121, (2-fluoro-4-((7-methoxy-2-oxo-2,3-dihydro-1H-imidazo[4,5-c][1,8]naphthyridin-1-yl)methyl)phenyl)phosphonic acid] are 9.4 nM, 31 nM, 8.2 nM, 91% and “potently increased the IFN-β levels at very low concentrations”.

The values above are taken from US11673889B2, “Substituted imidazo[4,5-c][1,8]naphthyridines as phosphodiesterase inhibitors” (Nanjing Zhengxiang Pharmaceuticals Co., Ltd., priority 2019, dated 2023).
